Measurements from US20260042762A1 (Kymera Therapeutics, Inc., priority 2018, published 2026).
Where two headings read alike, the source gives them in different places.

Biological target: T1, MerTK (Homo sapiens, UniProt Q12866)
T1 construct: endogenous in cells; host or cells: Jurkat cells
T1 sequence (Q12866 21-999): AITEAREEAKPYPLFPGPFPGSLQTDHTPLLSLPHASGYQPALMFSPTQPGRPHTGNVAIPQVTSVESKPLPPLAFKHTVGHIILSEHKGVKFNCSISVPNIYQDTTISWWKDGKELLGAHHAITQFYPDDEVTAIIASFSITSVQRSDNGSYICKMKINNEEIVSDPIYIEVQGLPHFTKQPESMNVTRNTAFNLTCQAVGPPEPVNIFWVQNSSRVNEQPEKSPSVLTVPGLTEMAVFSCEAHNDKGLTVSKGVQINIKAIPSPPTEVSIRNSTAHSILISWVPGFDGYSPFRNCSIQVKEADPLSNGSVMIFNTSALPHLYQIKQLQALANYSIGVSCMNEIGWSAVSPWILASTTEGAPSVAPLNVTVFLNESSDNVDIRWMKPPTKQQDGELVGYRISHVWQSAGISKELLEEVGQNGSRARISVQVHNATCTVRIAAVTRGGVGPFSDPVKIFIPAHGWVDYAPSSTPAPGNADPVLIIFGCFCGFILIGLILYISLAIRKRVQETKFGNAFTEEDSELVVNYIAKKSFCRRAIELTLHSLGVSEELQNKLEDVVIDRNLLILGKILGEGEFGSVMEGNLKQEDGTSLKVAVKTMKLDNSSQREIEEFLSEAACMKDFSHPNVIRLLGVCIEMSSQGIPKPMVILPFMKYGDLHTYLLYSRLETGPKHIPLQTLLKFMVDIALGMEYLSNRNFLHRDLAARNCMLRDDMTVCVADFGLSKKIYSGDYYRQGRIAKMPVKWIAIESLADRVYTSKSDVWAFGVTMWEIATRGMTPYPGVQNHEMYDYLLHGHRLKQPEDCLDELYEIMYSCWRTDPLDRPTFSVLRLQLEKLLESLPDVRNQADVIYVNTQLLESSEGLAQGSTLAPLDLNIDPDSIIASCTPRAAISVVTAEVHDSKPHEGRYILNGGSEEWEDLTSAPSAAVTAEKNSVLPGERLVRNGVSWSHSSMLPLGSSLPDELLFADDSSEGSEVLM
Assay: MerTk degradation in Jurkat cells (Western blot)
Format: cell-based
Details: 0.001-1 μM, 4 hour-incubation at 37° C., read-out: Jurkat Max % MerTK Degradation
Experimental: Compounds were reconstituted in DMSO to make 10 mM stock solutions. […] Cells were seeded into 6-well plates with about 5×10^6 cells per well. 2 μL of diluted compounds were added to cells to the final concentration of 0.001-1 μM. After a 4 hour-incubation at 37° C., cells were collected into 2 mL Eppendorf tubes and centrifuged at 1,000 rpm for 5 min. The cell pellets were washed with DPBS (1×) once and resuspended in 60 μL RIPA lysis buffer with Halt Protease and Phophatase Inhibitor Cocktail. The cells were lysed on ice for 10 min, then centrifuged at 14,000 rpm for 10 min at 4° C. and the supernatants were collected for western blots.
The protein concentration of cell lysates was quantified with Pierce™ BCA Protein Assay Kit. […] BCA working reagents were prepared by mixing BCA reagent A with reagent B in 50: 1 ratio. 200 μL of the BCA working reagents were added to 25 μL of BCA standard or cell lysates in microplate, and mixed thoroughly on a plate shaker for 30 seconds. After incubation at 37° C. for 30 min, the absorbance of samples at 562 nm were measured with EnVision Plate Reader.
Protein lysates were prepared in NuPAGE™ LDS sample buffer and NuPAGE™ sample reducing agent, and incubated at 95° C. for 5 min. […] The proteins were transferred to low fluorescence PVDF membranes using the Trans-Blot Turbo Transfer System. Membranes were then blocked in Odyssey blocking buffer at RT for 1 h followed by primary incubation at 4° C. overnight. The primary antibodies were MerTK rabbit monoclonal antibody and actin mouse monoclonal antibody. Membranes were washed three times with TBST (1×), and then incubated with IR Dye 800 CW Goat anti-rabbit and IR Dye 700 CW Goat anti-mouse secondary antibodies in 1:10,000 dilution at RT for 1 h. The Western blot images were obtained using Odyssey Imaging System.

Dmax (Jurkat, 4 h) [%]	SMILES	Dmax [%]
> 50	CCCCNc1ncc2c(-c3ccc(S(=O)(=O)N4CCN(CCOCCOCCOCCOCCNc5cccc6c5n(C)c(=O)n6C5CCC(=O)NC5=O)CC4)cc3)cn([C@H]3CC[C@H](O)CC3)c2n1 (relative stereo) [I-35, Trans-3-[4-[15-(4-[4-[2-(butylamino)-7-[-4-hydroxycyclohexyl]-7H-pyrrolo[2,3-d]pyrimidin-5-yl]benzenesulfonyl]piperazin-1-yl)-4,7,10,13-tetraoxa-1-azapentadecan-1-yl]-3-methyl-2-oxo-2,3-dihydro-1H-1,3-benzodiazol-1-yl]piperidine-2,6-dione]	
< 20	COCC(C)Nc1ncc2c(-c3ccc(CN4CCN(CCCCCNCCN[C@H](C(=O)N5C[C@H](O)C[C@H]5C(=O)NCc5ccc(-c6scnc6C)cc5)C(C)(C)C)CC4)cc3)cn([C@H]3CC[C@H](O)CC3)c2n1 (stereo partly drawn) [I-3, (2S,4R)-4-Hydroxy-1-[(2S)-2-([2-[(5-[4-[(4-[2-[(1-methoxypropan-2-yl)amino]-7-(trans-4-hydroxycyclohexyl)-7H-pyrrolo[2,3-d]pyrimidin-5-yl]phenyl)methyl]piperazin-1-yl]pentyl)amino]ethyl]amino)-3,3-dimethylbutanoyl]-N-[[4-(4-methyl-1,3-thiazol-5-yl)phenyl]methyl]pyrrolidine-2-carboxamide]	
> 50	COC[C@H](C)Nc1ncc2c(-c3ccc(CN4CCN(CCOCCOCCOCCOCCNc5cccc6c5n(C)c(=O)n6C5CCC(=O)NC5=O)CC4)cc3)cn([C@H]3CC[C@H](O)CC3)c2n1 (stereo partly drawn) [I-4, Trans-3-[4-[15-(4-[[4-(2-[[(2S)-1-methoxypropan-2-yl]amino]-7-[4-hydroxycyclohexyl]-7H-pyrrolo[2,3-d]pyrimidin-5-yl)phenyl]methyl]piperazin-1-yl)-4,7,10,13-tetraoxa-1-azapentadecan-1-yl]-3-methyl-2-oxo-2,3-dihydro-1H-1,3-benzodiazol-1-yl]piperidine-2,6-dione bis(formic acid)]	
< 20	COC[C@@H](C)Nc1ncc2c(-c3ccc(CN4CCN(CCOCCOCCOCCOCCNc5cccc6c5n(C)c(=O)n6C5CCC(=O)NC5=O)CC4)cc3)cn([C@H]3CC[C@H](O)CC3)c2n1 (stereo partly drawn) [I-5, Trans-3-[4-[15-(4-[[4-(2-[[(2R)-1-methoxypropan-2-yl]amino]-7-[4-hydroxycyclohexyl]-7H-pyrrolo[2,3-d]pyrimidin-5-yl)phenyl]methyl]piperazin-1-yl)-4,7,10,13-tetraoxa-1-azapentadecan-1-yl]-3-methyl-2-oxo-2,3-dihydro-1H-1,3-benzodiazol-1-yl]piperidine-2,6-dione bis(formic acid)]	
	CCCCNc1ncc2c(-c3ccc(CN4CCN(CCCC(=O)NCCCOCCCOCCCc5cccc6c5n(C)c(=O)n6C5CCC(=O)NC5=O)CC4)cc3)cn([C@H]3CC[C@H](O)CC3)c2n1 (stereo partly drawn) [I-8, Trans-4-[4-([4-[2-(butylamino)-7-[4-hydroxycyclohexyl]-7H-pyrrolo[2,3-d]pyrimidin-5-yl]phenyl]methyl)piperazin-1-yl]-N-[3-(3-[3-[1-(2,6-dioxopiperidin-3-yl)-3-methyl-2-oxo-2,3-dihydro-1H-1,3-benzodiazol-4-yl]propoxy]propoxy)propyl]butanamide formic acid]	> 50
> 50	COC[C@H](C)Nc1ncc2c(-c3ccc(CN4CCN(CCOCCOCCOCCOCCNc5cccc6c5C(=O)N(C5CCC(=O)NC5=O)C6=O)CC4)cc3)cn([C@H]3CC[C@H](O)CC3)c2n1 (stereo partly drawn) [I-11, Trans-2-(2,6-dioxopiperidin-3-yl)-4-[15-(4-[[4-(2-[[(2S)-1-methoxypropan-2-yl]amino]-7-[4-hydroxycyclohexyl]-7H-pyrrolo[2,3-d]pyrimidin-5-yl)phenyl]methyl]piperazin-1-yl)-4,7,10,13-tetraoxa-1-azapentadecan-1-yl]-2,3-dihydro-1H-isoindole-1,3-dione]	
> 50	CCCCNc1ncc(-c2ccc(CN3CCN(C(=O)COCCOCCOCCOCCNc4cccc5c4C(=O)N(C4CCC(=O)NC4=O)C5=O)CC3)cn2)c(N[C@H]2CC[C@H](O)CC2)n1 (stereo partly drawn) [I-22, 4-[15-[4-([6-[2-(Butylamino)-4-[[trans-4-hydroxycyclohexyl]amino]pyrimidin-5-yl]pyridin-3-yl]methyl)piperazin-1-yl]-15-oxo-4,7,10,13-tetraoxa-1-azapentadecan-1-yl]-2-(2,6-dioxopiperidin-3-yl)-2,3-dihydro-1H-isoindole-1,3-dione]	
20 to 50	CCCCNc1ncc2c(-c3ccc(S(=O)(=O)N4CCN(C(=O)COCCOCCOCCOCC(=O)N[C@H](C(=O)N5C[C@H](O)C[C@H]5C(=O)NCc5ccc(-c6scnc6C)cc5)C(C)(C)C)CC4)cc3)nn([C@H]3CC[C@H](O)CC3)c2n1 [I-31, (2S,4R)-1-((S)-2-(tert-butyl)-17-(4-((4-(6-(butylamino)-1-(trans-4-hydroxycyclohexyl)-1H-pyrazolo[3,4-d]pyrimidin-3-yl)phenyl)sulfonyl)piperazin-1-yl)-4,17-dioxo-6,9,12,15-tetraoxa-3-azaheptadecanoyl)-4-hydroxy-N-(4-(4-methylthiazol-5-yl)benzyl)pyrrolidine-2-carboxamide]	
> 50	CCCCNc1ncc2c(-c3ccc(S(=O)(=O)N4CCN(C(=O)COCCOCCOCCOCCNc5cccc6c5C(=O)N(C5CCC(=O)NC5=O)C6=O)CC4)cc3)nn([C@H]3CC[C@H](O)CC3)c2n1 (stereo partly drawn) [I-32, 4-((14-(4-((4-(6-(butylamino)-1-(trans-4-hydroxycyclohexyl)-1H-pyrazolo[3,4-d]pyrimidin-3-yl)phenyl)sulfonyl)piperazin-1-yl)-14-oxo-3,6,9,12-tetraoxatetradecyl)amino)-2-(2,6-dioxopiperidin-3-yl)isoindoline-1,3-dione]	
> 50	CCCCNc1ncc2c(-c3ccc(S(=O)(=O)N4CCN(CCOCCOCCOCCOCC(=O)N[C@H](C(=O)N5C[C@H](O)C[C@H]5C(=O)NCc5ccc(-c6scnc6C)cc5)C(C)(C)C)CC4)cc3)nn([C@H]3CC[C@H](O)CC3)c2n1 [I-33, (2S,4R)-1-((S)-2-(tert-butyl)-17-(4-((4-(6-(butylamino)-1-(trans-4-hydroxycyclohexyl)-1H-pyrazolo[3,4-d]pyrimidin-3-yl)phenyl)sulfonyl)piperazin-1-yl)-4-oxo-6,9,12,15-tetraoxa-3-azaheptadecanoyl)-4-hydroxy-N-(4-(4-methylthiazol-5-yl)benzyl)pyrrolidine-2-carboxamide]	
> 50	CCCCNc1ncc2c(-c3ccc(S(=O)(=O)N4CCN(CCOCCOCCOCCOCCNc5cccc6c5C(=O)N(C5CCC(=O)NC5=O)C6=O)CC4)cc3)nn([C@H]3CC[C@H](O)CC3)c2n1 (stereo partly drawn) [I-34, 4-((14-(4-((4-(6-(butylamino)-1-(trans-4-hydroxycyclohexyl)-1H-pyrazolo[3,4-d]pyrimidin-3-yl)phenyl)sulfonyl)piperazin-1-yl)-3,6,9,12-tetraoxatetradecyl)amino)-2-(2,6-dioxopiperidin-3-yl)isoindoline-1,3-dione]	
> 50	CCCCNc1ncc2c(-c3ccc(CN4CCN(CCOCCOCCOCCOCCNc5cccc6c5n(C)c(=O)n6C5CCC(=O)NC5=O)CC4)cc3)cn([C@H]3CC[C@H](O)CC3)c2n1 (stereo partly drawn) [I-36, trans-3-(4-[15-[4-([4-[2-(butylamino)-7-[4-hydroxycyclohexyl]-7H-pyrrolo[2,3-d]pyrimidin-5-yl]phenyl]methyl)piperazin-1-yl]-4,7,10,13-tetraoxa-1-azapentadecan-1-yl]-3-methyl-2-oxo-2,3-dihydro-1H-1,3-benzodiazol-1-yl)piperidine-2,6-dione]	
